Test results: patent publication US20250114338A1, “TETRAHYDRO-PYRIDO[3,4-b]INDOLE ESTROGEN RECEPTOR MODULATORS AND USES THEREOF” (Genentech, Inc., priority 2014, published 2025)

Tested on: ER-alpha MCF7
Experiment: ER-alpha MCF7 HCS EC50; stated as measured by in vitro cell proliferation assays of Examples 902 and 903
Format: cell-based
Details: Table 2
Summary of the method: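 MCF7 cells seeded 1000-2000 cells/well for 16 h, then treated with nine-point 1:2 DMSO dilution series in quadruplicate at 37 °C, 5% CO2 for 4 days. Viable cells quantified by CellTiter-Glo ATP luminescence; EC50 calculated. Controls: fulvestrant at final 100 nM, DMSO 0.2% v/v.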

Row | SMILES | EC50 (Homo sapiens, MCF7, MCF7 cells) [pM] | EC50 (MCF7 cells) [pM]
1 | C[C@H]1Cc2c([nH]c3ccc(F)cc23)[C@H](c2c(F)cc(OCCN3CC(CF)C3)cc2F)N1CC(F)F [Example 384, (1S,3S)-1-(2,6-difluoro-4-(2-(3-(fluoromethyl)azetidin-1-yl)ethoxy)phenyl)-2-(2,2-difluoroethyl)-6-fluoro-3-methyl-2,3,4,9-tetrahydro-1H-pyrido[3,4-b]indole] | 29000 | –
2 | C[C@@H]1Cc2c([nH]c3ccc(F)cc23)[C@@H](c2c(F)cc(OC3CN(CCCF)C3)cc2F)N1CC(F)F [Example 385, (1R,3R)-1-(2,6-difluoro-4-((1-(3-fluoropropyl)azetidin-3-yl)oxy)phenyl)-2-(2,2-difluoroethyl)-6-fluoro-3-methyl-2,3,4,9-tetrahydro-1H-pyrido[3,4-b]indole] | 74 | –
3 | C[C@H]1Cc2c([nH]c3ccc(F)cc23)[C@H](c2c(F)cc(OC3CN(CCCF)C3)cc2F)N1CC(F)F [Example 386, (1S,3S)-1-(2,6-difluoro-4-((1-(3-fluoropropyl)azetidin-3-yl)oxy)phenyl)-2-(2,2-difluoroethyl)-6-fluoro-3-methyl-2,3,4,9-tetrahydro-1H-pyrido[3,4-b]indole] | 23000 | –
4 | C[C@@H]1Cc2c([nH]c3ccc(F)cc23)[C@@H](c2c(F)cc(NC3CN(CCCF)C3)cc2F)N1S(C)(=O)=O [Example 387, N-(3,5-difluoro-4-((1R,3R)-6-fluoro-3-methyl-2-(methylsulfonyl)-2,3,4,9-tetrahydro-1H-pyrido[3,4-b]indol-1-yl)phenyl)-1-(3-fluoropropyl)azetidin-3-amine] | 149 | –
5 | C[C@H]1Cc2c([nH]c3ccc(F)cc23)[C@H](c2c(F)cc(NC3CN(CCCF)C3)cc2F)N1S(C)(=O)=O [Example 388, N-(3,5-difluoro-4-((1S,3S)-6-fluoro-3-methyl-2-(methylsulfonyl)-2,3,4,9-tetrahydro-1H-pyrido[3,4-b]indol-1-yl)phenyl)-1-(3-fluoropropyl)azetidin-3-amine] | 19000 | –
6 | C[C@@H]1Cc2c([nH]c3ccc(F)cc23)[C@@H](c2c(F)cc(NC3CN(CCCF)C3)cc2F)N1CC(F)F [Example 389, N-(4-((1R,3R)-2-(2,2-difluoroethyl)-6-fluoro-3-methyl-2,3,4,9-tetrahydro-1H-pyrido[3,4-b]indol-1-yl)-3,5-difluorophenyl)-1-(3-fluoropropyl)azetidin-3-amine] | 56 | –
7 | C[C@H]1Cc2c([nH]c3ccc(F)cc23)[C@H](c2c(F)cc(NC3CN(CCCF)C3)cc2F)N1CC(F)F [Example 390, N-(4-((1S,3S)-2-(2,2-difluoroethyl)-6-fluoro-3-methyl-2,3,4,9-tetrahydro-1H-pyrido[3,4-b]indol-1-yl)-3,5-difluorophenyl)-1-(3-fluoropropyl)azetidin-3-amine] | 9700 | –
8 | C[C@@H]1Cc2c([nH]c3ccccc23)[C@@H](c2c(F)cc(OC3CN(C4CC(CF)C4)C3)cc2F)N1CC(C)(C)F (stereo partly drawn) [Example 391, (1R,3R)-1-(2,6-difluoro-4-((1- cis-(3-(fluoromethyl)cyclobutyl)azetidin-3-yl)oxy)phenyl)-2-(2-fluoro-2-methylpropyl)-3-methyl-2,3,4,9-tetrahydro-1H-pyrido[3,4-b]indole] | – | 150
9 | C[C@@H]1Cc2c([nH]c3ccccc23)[C@@H](c2c(F)cc(OC3CN(C4CC(CF)C4)C3)cc2F)N1CC(C)(C)F (stereo partly drawn) [Example 392, (1R,3R)-1-(2,6-difluoro-4-((1- trans-(3-(fluoromethyl)cyclobutyl)azetidin-3-yl)oxy)phenyl)-2-(2-fluoro-2-methylpropyl)-3-methyl-2,3,4,9-tetrahydro-1H-pyrido[3,4-b]indole] | – | 440
10 | C[C@@H]1Cc2c([nH]c3ccccc23)[C@@H](c2c(F)cc(OC3CN(CCCF)C3)cc2F)N1CC1(F)CCC1 [Example 393, (1R,3R)-1-(2,6-difluoro-4-((1-(3-fluoropropyl)azetidin-3-yl)oxy)phenyl)-2-((1-fluorocyclobutyl)methyl)-3-methyl-2,3,4,9-tetrahydro-1H-pyrido[3,4-b]indole] | 142 | –
11 | C[C@@H]1Cc2c([nH]c3ccccc23)[C@@H](c2c(F)cc(OCCN3CC(CF)C3)cc2F)N1C[C@H](F)CO [Example 394, (S)-3-((1R,3R)-1-(2,6-difluoro-4-(2-(3-(fluoromethyl)azetidin-1-yl)ethoxy)phenyl)-3-methyl-3,4-dihydro-1H-pyrido[3,4-b]indol-2(9H)-yl)-2-fluoropropan-1-ol] | 230 | –
12 | C[C@@H]1Cc2c([nH]c3ccccc23)[C@@H](c2c(F)cc(OCCN3CC(CF)C3)cc2F)N1C[C@@H](F)CO [Example 395, (R)-3-((1R,3R)-1-(2,6-difluoro-4-(2-(3-(fluoromethyl)azetidin-1-yl)ethoxy)phenyl)-3-methyl-3,4-dihydro-1H-pyrido[3,4-b]indol-2(9H)-yl)-2-fluoropropan-1-ol] | 53 | –
13 | C[C@@H]1Cc2c([nH]c3cc(F)ccc23)[C@@H](c2c(F)cc(NC3CN(CCCF)C3)cc2F)N1CC(F)(F)F [Example 396, N-(3,5-difluoro-4-((1R,3R)-7-fluoro-3-methyl-2-(2,2,2-trifluoroethyl)-2,3,4,9-tetrahydro-1H-pyrido[3,4-b]indol-1-yl)phenyl)-1-(3-fluoropropyl)azetidin-3-amine] | 110 | –
14 | C[C@H]1Cc2c([nH]c3cc(F)ccc23)[C@H](c2c(F)cc(NC3CN(CCCF)C3)cc2F)N1CC(F)(F)F [Example 397, N-(3,5-difluoro-4-((1S,3S)-7-fluoro-3-methyl-2-(2,2,2-trifluoroethyl)-2,3,4,9-tetrahydro-1H-pyrido[3,4-b]indol-1-yl)phenyl)-1-(3-fluoropropyl)azetidin-3-amine] | 33000 | –
15 | C[C@@H]1Cc2c([nH]c3cccc(F)c23)[C@@H](c2c(F)cc(NC3CN(CCCF)C3)cc2F)N1C[C@](C)(F)CO [Example 398, (S)-3-((1R,3R)-1-(2,6-difluoro-4-((1-(3-fluoropropyl)azetidin-3-yl)amino)phenyl)-5-fluoro-3-methyl-3,4-dihydro-1H-pyrido[3,4-b]indol-2(9H)-yl)-2-fluoro-2-methylpropan-1-ol] | 110 | –
16 | C[C@H]1Cc2c([nH]c3cccc(F)c23)[C@H](c2c(F)cc(NC3CN(CCCF)C3)cc2F)N1C[C@@](C)(F)CO [Example 399, (R)-3-((1S,3S)-1-(2,6-difluoro-4-((1-(3-fluoropropyl)azetidin-3-yl)amino)phenyl)-5-fluoro-3-methyl-3,4-dihydro-1H-pyrido[3,4-b]indol-2(9H)-yl)-2-fluoro-2-methylpropan-1-ol] | 1100 | –
17 | C[C@@H]1Cc2c([nH]c3cccc(F)c23)[C@@H](c2c(F)cc(NC3CN(CCCF)C3)cc2F)N1C[C@@](C)(F)CO [Example 400, (R)-3-((1R,3R)-1-(2,6-difluoro-4-((1-(3-fluoropropyl)azetidin-3-yl)amino)phenyl)-5-fluoro-3-methyl-3,4-dihydro-1H-pyrido[3,4-b]indol-2(9H)-yl)-2-fluoro-2-methylpropan-1-ol] | 23 | –
18 | C[C@H]1Cc2c([nH]c3cccc(F)c23)[C@H](c2c(F)cc(NC3CN(CCCF)C3)cc2F)N1C[C@](C)(F)CO [Example 401, (S)-3-((1S,3S)-1-(2,6-difluoro-4-((1-(3-fluoropropyl)azetidin-3-yl)amino)phenyl)-5-fluoro-3-methyl-3,4-dihydro-1H-pyrido[3,4-b]indol-2(9H)-yl)-2-fluoro-2-methylpropan-1-ol] | 2400 | –
19 | C[C@@H]1Cc2c([nH]c3ccccc23)[C@@H](c2c(F)cc(OCCN3CC(CF)C3)cc2F)N1C[C@H](CO)CF [Example 402, (R)-3-((1R,3R)-1-(2,6-difluoro-4-(2-(3-(fluoromethyl)azetidin-1-yl)ethoxy)phenyl)-3-methyl-3,4-dihydro-1H-pyrido[3,4-b]indol-2(9H)-yl)-2-(fluoromethyl)propan-1-ol] | 32 | –
20 | C[C@@H]1Cc2c([nH]c3ccccc23)[C@@H](c2c(F)cc(OCCN3CC(CF)C3)cc2F)N1C[C@@H](CO)CF [Example 403, (S)-3-((1R,3R)-1-(2,6-difluoro-4-(2-(3-(fluoromethyl)azetidin-1-yl)ethoxy)phenyl)-3-methyl-3,4-dihydro-1H-pyrido[3,4-b]indol-2(9H)-yl)-2-(fluoromethyl)propan-1-ol] | 130 | –
21 | C[C@@H]1Cc2c([nH]c3ccccc23)[C@@H](c2c(F)cc(N(C)C3CN(CCCF)C3)cc2F)N1CC(C)(C)F [Example 404, N-(3,5-difluoro-4-((1R,3R)-2-(2-fluoro-2-methylpropyl)-3-methyl-2,3,4,9-tetrahydro-1H-pyrido[3,4-b]indol-1-yl)phenyl)-1-(3-fluoropropyl)-N-methylazetidin-3-amine] | 745 | –
22 | CC1(C)Cc2c([nH]c3ccccc23)[C@@H](c2c(F)cc(NC3CN(CCCF)C3)cc2F)N1CC(F)F [Example 405, (R)-N-(4-(2-(2,2-difluoroethyl)-3,3-dimethyl-2,3,4,9-tetrahydro-1H-pyrido[3,4-b]indol-1-yl)-3,5-difluorophenyl)-1-(3-fluoropropyl)azetidin-3-amine] | 230 | –
23 | CC1(C)Cc2c([nH]c3ccccc23)[C@H](c2c(F)cc(NC3CN(CCCF)C3)cc2F)N1CC(F)F [Example 406, (S)-N-(4-(2-(2,2-difluoroethyl)-3,3-dimethyl-2,3,4,9-tetrahydro-1H-pyrido[3,4-b]indol-1-yl)-3,5-difluorophenyl)-1-(3-fluoropropyl)azetidin-3-amine] | 1800 | –
24 | C[C@@H]1Cc2c([nH]c3cccc(F)c23)[C@@H](c2c(F)cc(NC3CN(CCCF)C3)cc2F)N1CC(F)(F)F [Example 407, N-(3,5-difluoro-4-((1R,3R)-5-fluoro-3-methyl-2-(2,2,2-trifluoroethyl)-2,3,4,9-tetrahydro-1H-pyrido[3,4-b]indol-1-yl)phenyl)-1-(3-fluoropropyl)azetidin-3-amine] | 120 | –
25 | C[C@H]1Cc2c([nH]c3cccc(F)c23)[C@H](c2c(F)cc(NC3CN(CCCF)C3)cc2F)N1CC(F)(F)F [Example 408, N-(3,5-difluoro-4-((1S,3S)-5-fluoro-3-methyl-2-(2,2,2-trifluoroethyl)-2,3,4,9-tetrahydro-1H-pyrido[3,4-b]indol-1-yl)phenyl)-1-(3-fluoropropyl)azetidin-3-amine] | 6300 | –
